Experiments:
pAKT in BT474 cells = assay: Cell-based pAKT HTRF assay in BT474 cells; conditions: BT474 cells; 4 hr incubation; Compounds 10-999; read-out: pAKT inhibition IC50 in BT474 cells
Method in brief: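 Cells are seeded on day 1 and dosed on day 2 with a 9-point curve (3 μM top, 3-fold). After 4 hr they are lysed and the lysate is mixed with d2- and Eu Cryptate-labelled antibodies. HTRF is read after 4–24 h at room temperature.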

[1] = molecular target: Cys242 in human PIK3CA (157-299) (Homo sapiens (Human), UniProt P42336); assay: Covalent modification assay using MALDI-TOF MS; type: biochemical; conditions: 4 h reaction time point; 3.33 μM protein target, 1:7.5 protein to compound ratio (compounds 1-852)
Method in brief: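 PIK3CA (157-299) at 3.33 μM or 1 μM in 20 mM HEPES, 150 mM NaCl, 2 mM MgCl2, pH 7.3 was incubated with compound (from 10 mM DMSO stocks) in the dark at room temperature for 15 min, 30 min, 2 h or 4 h. Linear-mode MALDI-TOF peak heights gave percent modification.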

Cys242 in human PIK3CA (157-299), sequence (P42336 157-299): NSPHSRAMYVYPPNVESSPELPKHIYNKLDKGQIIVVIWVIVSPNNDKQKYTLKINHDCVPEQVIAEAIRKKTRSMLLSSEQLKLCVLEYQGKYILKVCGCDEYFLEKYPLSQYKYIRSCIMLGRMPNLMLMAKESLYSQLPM

Row | SMILES | IC50 (pAKT in BT474 cells) | % of modification [1]
1 | C=CC(=O)N1CCn2nc(-c3nc(-c4ccc5c(cnn5C)c4)c4ccsc4c3-c3c(F)cc(F)cc3OC[C@@H](C)O)cc2[C@@H]1C [Compound 671] | < 100 nM | A (percent of modification of PIK3CA protein ≥75%)
2 | C=CC(=O)N1CCn2nc(-c3nc(-c4ccc5cnncc5c4)c4ccsc4c3-c3c(F)cc(F)cc3OCCO)cc2[C@@H]1C [Compound 672] | < 100 nM | A (percent of modification of PIK3CA protein ≥75%)
3 | C=CC(=O)N1Cc2cc(-c3nc(-c4cnn(C)c4)c4ccsc4c3-c3c(F)cc(F)cc3OCCO)nn2C[C@H]1C [Compound 673] | 100 to 1000 nM | D (percent of modification <25%)
4 | C=CC(=O)N1Cc2cc(-c3nc(-c4cnn(C)c4)c4ccsc4c3-c3c(F)cc(F)cc3OCCO)nn2C[C@H]1C [Compound 674] | < 100 nM | A (percent of modification of PIK3CA protein ≥75%)
5 | C=CC(=O)N1CCn2nc(-c3nc(-c4cncc(C#N)c4)c4ccsc4c3-c3c(F)cc(F)cc3OC[C@@H](C)O)cc2[C@@H]1C [Compound 676] | < 100 nM | A (percent of modification of PIK3CA protein ≥75%)
6 | C=CC(=O)N1CCn2nc(-c3nc(-c4ccc5cnncc5c4)c4ccsc4c3-c3c(F)cc(F)cc3OCC(C)O)cc2C1C (stereo not drawn) [Compound 678] | < 100 nM | A (percent of modification of PIK3CA protein ≥75%)
7 | C=CC(=O)N1Cc2cc(-c3nc(-c4ccc5cnn(C)c5c4)c4ccsc4c3-c3c(F)cc(F)cc3OCC(C)O)nn2C(C)C1 (stereo not drawn) [Compound 680] | < 100 nM | A (percent of modification of PIK3CA protein ≥75%)
8 | C=CC(=O)N1Cc2cc(-c3nc(-c4cnc5c(c4)CN(C)C5=O)c4ccsc4c3-c3c(F)cc(F)cc3OCCOC)nn2C[C@H]1C [Compound 687] | < 100 nM | A (percent of modification of PIK3CA protein ≥75%)
9 | C=CC(=O)N1Cc2cc(-c3nc(-c4cnc5c(c4)CNC(=O)C5)c4ccsc4c3-c3c(F)cc(F)cc3OCCOC)nn2[C@@H](C)C1 [Compound 688] | < 100 nM | A (percent of modification of PIK3CA protein ≥75%)
10 | C=CC(=O)N1Cc2cc(-c3nc(-c4ccc5ncn(C)c5c4)c4ccsc4c3-c3c(F)cc(F)cc3OCCOC)nn2C[C@H]1C [Compound 689] | < 100 nM | A (percent of modification of PIK3CA protein ≥75%)
11 | C=CC(=O)N1Cc2cc(-c3nc(-c4ccc5c(c4)CNC5=O)c4ccsc4c3-c3c(F)cc(F)cc3OCCOC)nn2C[C@H]1C [Compound 691] | < 100 nM | A (percent of modification of PIK3CA protein ≥75%)
12 | C=CC(=O)N1Cc2cc(-c3nc(-c4ccc5c(c4)N(C)C(=O)C5)c4ccsc4c3-c3c(F)cc(F)cc3OCCOC)nn2C[C@H]1C [Compound 692] | < 100 nM | A (percent of modification of PIK3CA protein ≥75%)
13 | C=CC(=O)N1Cc2cc(-c3nc(-c4ccc5nncn5c4)c4ccsc4c3-c3c(F)cc(F)cc3OCCOC)nn2[C@@H](C)C1 [Compound 693] | < 100 nM | A (percent of modification of PIK3CA protein ≥75%)
14 | C=CC(=O)N1CCn2nc(-c3nc(-c4ccc5ncn(C)c5c4)c4ccsc4c3-c3c(F)cc(F)cc3OCCOC)cc2[C@@H]1C [Compound 702] | < 100 nM | A (percent of modification of PIK3CA protein ≥75%)
15 | C=CC(=O)N1CCn2nc(-c3nc(-c4ccc5c(c4)CCN(C)C5)c4ccsc4c3-c3c(F)cc(F)cc3OC[C@@H](C)O)cc2[C@H]1C [Compound 721] | < 100 nM | A (percent of modification of PIK3CA protein ≥75%)
16 | C=CC(=O)N1Cc2cc(-c3nc(-c4ccn(C)n4)c4ccsc4c3-c3c(F)cc(F)cc3OCCOC)nn2C[C@H]1C [Compound 722] | < 100 nM | A (percent of modification of PIK3CA protein ≥75%)
17 | C=CC(=O)N1Cc2cc(-c3nc(-c4cnn(C)c4)c4ccsc4c3-c3c(F)cc(F)cc3OC[C@@H](C)O)nn2C[C@H]1C [Compound 724] | < 100 nM | A (percent of modification of PIK3CA protein ≥75%)
18 | C=CC(=O)N1Cc2cc(-c3nc(-c4ccc5c(cnn5C)c4)c4ccsc4c3-c3c(F)cc(F)cc3OC[C@@H](C)O)nn2C[C@H]1C [Compound 725] | < 100 nM | A (percent of modification of PIK3CA protein ≥75%)
19 | C=CC(=O)N1Cc2cc(-c3nc(-c4cnn(C(C)C)c4)c4ccsc4c3-c3c(F)cc(F)cc3OC[C@@H](C)O)nn2C[C@H]1C [Compound 726] | < 100 nM | A (percent of modification of PIK3CA protein ≥75%)
20 | C=CC(=O)N1Cc2cc(-c3nc(-c4cnn(CC(F)F)c4)c4ccsc4c3-c3c(F)cc(F)cc3OCCOC)nn2C[C@H]1C [Compound 727] | < 100 nM | A (percent of modification of PIK3CA protein ≥75%)
21 | C=CC(=O)N1Cc2cc(-c3nc(-c4cnn(C(C)C)c4)c4ccsc4c3-c3c(F)cc(F)cc3OCCO)nn2[C@@H](C)C1 [Compound 728] | 100 to 1000 nM | D (percent of modification <25%)

More lines, main results first:

Row | IC50 (pAKT in BT474 cells) | SMILES | % of modification [1]
22 | < 100 nM | C=CC(=O)N1CCn2nc(-c3nc(-c4ccc5cnn(C)c5c4)c4ccsc4c3-c3c(F)cc(F)cc3OCC(C)O)cc2C1C (stereo not drawn) [Compound 677] | A (percent of modification of PIK3CA protein ≥75%)
23 | < 100 nM | C=CC(=O)N1Cc2cc(-c3nc(-c4ccc5oc(C)nc5c4)c4ccsc4c3-c3c(F)cc(F)cc3OCC(C)O)nn2C(C)C1 (stereo not drawn) [Compound 683] | A (percent of modification of PIK3CA protein ≥75%)
24 | < 100 nM | C=CC(=O)N1Cc2cc(-c3nc(-c4cc5n(n4)CCNC5=O)c4ccsc4c3-c3c(F)cc(F)cc3OCCOC)nn2C[C@H]1C [Compound 685] | A (percent of modification of PIK3CA protein ≥75%)
25 | < 100 nM | C=CC(=O)N1Cc2cc(-c3nc(-c4cnc(C)nc4)c4ccsc4c3-c3c(F)cc(F)cc3OCCOC)nn2C[C@H]1C [Compound 686] | A (percent of modification of PIK3CA protein ≥75%)
26 | < 100 nM | C=CC(=O)N1Cc2cc(-c3nc(-c4ccc5cn[nH]c5c4)c4ccsc4c3-c3c(F)cc(F)cc3OCCOC)nn2C[C@H]1C [Compound 690] | A (percent of modification of PIK3CA protein ≥75%)
27 | < 100 nM | C=CC(=O)N1Cc2cc(-c3nc(-c4ccc5[nH]cnc5c4)c4ccsc4c3-c3c(F)cc(F)cc3OCCOC)nn2C[C@H]1C [Compound 720] | A (percent of modification of PIK3CA protein ≥75%)
28 | < 100 nM | C=CC(=O)N1Cc2cc(-c3nc(-c4cnn(C5CCC5)c4)c4ccsc4c3-c3c(F)cc(F)cc3OCCOC)nn2C[C@H]1C [Compound 723] | A (percent of modification of PIK3CA protein ≥75%)
29 | < 100 nM | C=CC(=O)N1Cc2cc(-c3nc(-c4ccc5cn(C)nc5c4)c4ccsc4c3-c3c(F)cc(F)cc3OCCOC)nn2C[C@H]1C [Compound 737] | A (percent of modification of PIK3CA protein ≥75%)
30 | < 100 nM | C=CC(=O)N1Cc2cc(-c3nc(-c4cnn(C(C)(C)CO)c4)c4ccsc4c3-c3c(F)cc(F)cc3OCCOC)nn2C[C@H]1C [Compound 738] | A (percent of modification of PIK3CA protein ≥75%)

From US20250230138A1, “COMPOUNDS HAVING A T-STRUCTURE FORMED BY AT LEAST FOUR CYCLES FOR USE IN THE TREATMENT OF CANCER AND OTHER INDICATIONS” (TheRas, Inc., priority 2022, published 2025)
